Experimental data: patent US20110082177A1, “N'-NITROXYALKYLNICOTINAMIDES FOR THE TREATMENT OF CARDIOVASCULAR DISEASES” (priority 2008, published 2011)

Assays:
[1] = Binding to heparin, absorption method; details: compound 100 μM, heparin immobilised on Sepharose 25 mg/ml
Protocol: The absorption method consisted in comparing the absorption spectrum of an aqueous solution of the tested compound with the absorption spectrum of the same solution after its incubation with Sepharose immobilised heparin as a glycosaminoglycan mimicking the glycosaminoglycan receptor. The absorption spectra were recorded using a Perkin Elmer Lambda 40 spectrophotometer. The following reagents were prepared prior to the experiment: an aqueous solution of the tested compound of Example 1, namely 1-methyl-N′-(2-nitroxyethyl)nicotinamide chloride (MNIC^+Cl^−), at a concentration of 100 μM, an aqueous suspension of heparin immobilised on Sepharose at 25 mg/ml, and a solution of MNIC^+Cl^− in an aqueous suspension of heparin having the same concentrations in both the tested compound and heparin as mentioned above. Following the initial incubation of the solution of the tested compound with heparin, it was centrifuged for 6 minutes at 13,000 rpm. Then supernatant solutions above the precipitate of heparin were separated and the spectra of the solutions were recorded at the wavelength range of 200-600 nm.
The degree of binding of MNIC^+ to heparin was determined by calculating the areas under the absorption curves of the compound before and after contact with heparin, using the following relationship: […]

[2] = Binding to heparin, radiation method (pulse radiolysis); details: water-soluble heparin 10 μM
Protocol: The experiment consisted in studying the effect of the presence of heparin on the observed rate of scavenging the hydrated electron by the MNIC^+ cation. The studies were carried out by pulse radiolysis, using an Elektronika ELU-6E linear electron accelerator (at the Institute of Applied Radiation Chemistry, Technical University of Lodz, Poland) having an electron beam energy of 6-8 MeV, as an ionising-radiation source. A solution of water-soluble heparin at a concentration of 10 μM was used in the experiment. […]
Based on the recorded kinetic traces of decay of the hydrated electron in the presence of the MNIC^+Cl^− solutions at various concentrations, the values of the pseudo-first order rate constants were determined. The value of the second-order rate constant for the investigated reaction was determined from the slope of the linear dependence of the above-determined rate constants versus concentration. […] Then, based on the determined second-order reaction rate constant and the observed rate constant for decay of the hydrated electron in the presence of heparin and MNIC^+, the degree of binding of the tested compound to heparin was determined using the following relationship: […]

[3] = Scavenging of the hydrated electron by pulse radiolysis; type: physicochemical; details: no heparin added, λ=720 nm
Protocol: The experiment consisted in studying the effect of the presence of heparin on the observed rate of scavenging the hydrated electron by the MNIC^+ cation. The studies were carried out by pulse radiolysis, using an Elektronika ELU-6E linear electron accelerator (at the Institute of Applied Radiation Chemistry, Technical University of Lodz, Poland) having an electron beam energy of 6-8 MeV, as an ionising-radiation source. A solution of water-soluble heparin at a concentration of 10 μM was used in the experiment. […] Based on the recorded kinetic traces of decay of the hydrated electron in the presence of the MNIC^+Cl^− solutions at various concentrations, the values of the pseudo-first order rate constants were determined. The value of the second-order rate constant for the investigated reaction was determined from the slope of the linear dependence of the above-determined rate constants versus concentration. […] Then, based on the determined second-order reaction rate constant and the observed rate constant for decay of the hydrated electron in the presence of heparin and MNIC^+, the degree of binding of the tested compound to heparin was determined using the following relationship: […]

isolated rat aorta = assay: Vasodilating effect on phenylephrine contracted isolated rat aortal rings; details: isolated rat aorta with preserved endothelial function; concentrations range from tens to hundreds μmol/l
Protocol: (§1) The vasodilating effect of MNIC^+Cl^− in aqueous solutions on isolated rat aorta was studied in the conditions close to physiological ones. 3-5 mm aortal rings with preserved endothelial function placed in a set of 6 containers a 5 ml containing the Krebs-Henseleit buffer constantly aerated with 5% CO2 in O2 and thermostated at 37° C. were suspended between two hooks connected to the force transducer for recording the ring contraction. Then, following the constriction induced by phenylephrine, the concentration-dependent vasodilating effect of MNIC^+Cl^− was investigated by measurement of relaxation of phenylephrine contracted aortal rings.

[4] = system: soluble guanyl cyclase (sGC); assay: Effect of sGC inhibitor ODQ on vasodilatating activity in isolated rat aortal rings
Protocol: as §1
(§2) The experiments explaining the mechanisms responsible for vasodilation induced by MNIC^+Cl^− were carried out in the same system of isolated vascular vessels. In order to determine the contribution of sGC and KATP channels in the vasodilating activity of the compound, the effects of an inhibitor of ATP-dependent potassium channels—glibenclamide (GLB) at a concentration of 10 μM, and an inhibitor of soluble guanyl cyclase (sGC) 1H-[1,2,4]-oxadiazole[4,3-a]quinoxalin-1-one (ODQ) at a concentration of 10 μM on this vasodilating activity were investigated in two set of experiments. In these experiments, MNIC^+Cl^− was used at the concentrations causing about 80-90% vasodilation, as determined in the experiment described above. […]

[5] = system: ATP-dependent potassium channels; assay: Effect of potassium channel inhibitor GLB on vasodilatating activity in isolated rat aortal rings
Protocol: as §1, §2

[6] = Ability to release NO by EPR method; details: preliminary investigations
Protocol: Preliminary investigations of the ability of MNIC^+Cl^− to release NO were also performed using EPR (Electron Paramagnetic Resonance) method. The results of these studies confirmed that MNIC^+Cl^− releases NO, and most likely the vasodilating activity of the compound is a consequence of the stimulation of sGC by NO thus released.

Row | degree of binding to heparin [1] [%] | degree of binding to heparin [2] [%] | SMILES | second-order rate constant for the reaction of hydrated electron with the MNIC+ cation [3] [M⁻¹ s⁻¹] | vasodilating activity (relaxation of phenylephrine contracted aortal rings) (isolated rat aorta) | effect of further addition of ODQ after GLB pre-incubation on vasodilatating activity ([4]; ODQ 10 μM added after GLB 10 μM) | effect of pre-incubation with ODQ on vasodilatating activity ([4]; ODQ 10 μM, MNIC+Cl− at concentrations causing about 80-90% vasodilation) | effect of addition of GLB after ODQ pre-incubation on reversal of the ODQ effect ([5]; GLB 10 μM added after ODQ 10 μM) | effect of pre-incubation with GLB on vasodilatating activity ([5]; GLB 10 μM, MNIC+Cl− at concentrations causing about 80-90% vasodilation) | ability to release NO [6]
1 | 50 | 39 | C[n+]1cccc(C(N)=O)c1 [1-methylnicotinamide, reference compound] | – | – | – | – | – | – | –
2 | 30 | 47 | C[n+]1cccc(C(=O)NCCO[N+](=O)[O-])c1.[Cl-] [MNIC^+Cl^−, 1-Methyl-N′-(2-nitroxyethyl)nicotinamide chloride] | 4.17e+10 to 1e+11 | concentration-dependent vasodilating activity | inhibition of vasodilatating activity | inhibited vasodilatating activity | no further influence | had no influence | releases NO
